This note sets out measurements from ChEMBL document CHEMBL4819081 (Eur J Med Chem, 2021).

Data set [1] relates to MDA-MB-231. Briefly: Induction of cell cycle arrest in human MDA-MB-231 cells assessed as accumulation at G1 phase at 1.5 uM after 12 hrs by propidium iodide staining-based flow cytometric analysis (reference value: 53.11%). In kind it is functional. (In flow cytometry, cells or beads pass a laser one at a time.)
In data set [2] the test system is MDA-MB-231. Briefly: Induction of cell cycle arrest in human MDA-MB-231 cells assessed as accumulation at G1 phase at 0.375 uM after 12 hrs by propidium iodide staining-based flow cytometric analysis (reference value: 53.11%). In kind it is functional.
The subject of data set [3] is MDA-MB-231. Put plainly: Inhibition of clone formation in human MDA-MB-231 cells at 0.16 uM after 14 days by crystal violet staining based-colony formation assay. To be noted: time 14.0 day. In kind it is functional, cell-based.
Data set [4] concerns MDA-MB-231. Put plainly: Induction of cell cycle arrest in human MDA-MB-231 cells assessed as accumulation at S phase at 0.375 uM after 12 hrs by propidium iodide staining-based flow cytometric analysis (reference value: 21.11%). In kind it is functional.
For data set [5], the system named is MDA-MB-231. Put plainly: Induction of cell cycle arrest in human MDA-MB-231 cells assessed as accumulation at S phase at 1.5 uM after 12 hrs by propidium iodide staining-based flow cytometric analysis (reference value: 23.71%). In kind it is functional.
The next data set has as its system MDA-MB-453. Briefly: Antiproliferative activity against human MDA-MB-453 cells assessed as reduction in cell viability after 72 hrs by MTT assay. In kind it is functional, cell-based. The following applies: MDA-MB-453, 72 h. (In general: Tetrazolium dyes change colour on reduction, which living cells bring about.)
Another data set relates to L02. Put plainly: Cytotoxicity against human L02 cells measured upto 20 uM after 72 hrs by MTT assay. In kind it is cell-based. The following applies: l02, 72 h.
The subject of the next data set is MCF7. Put plainly: Potency index, ratio of IC50 for Palbociclib to IC50 for test compound for antiproliferative activity against human MCF7 cells assessed as reduction in cell viability after 72 hrs by MTT assay. In kind it is functional.
A short description of data set [6]: Inhibition of clone formation in human MDA-MB-231 cells at 0.625 uM after 14 days by crystal violet staining based-colony formation assay. The following applies: MDA-MB-231, 336 h, time 14 day. In kind it is functional.
The subject of another data set is NCI-H1299. Briefly: Potency index, ratio of IC50 for Palbociclib to IC50 for test compound for antiproliferative activity against human H1299 cells assessed as reduction in cell viability after 72 hrs by MTT assay. In kind it is functional.
Data set [7] relates to MDA-MB-231. Briefly: Induction of cell cycle arrest in human MDA-MB-231 cells assessed as accumulation at G2 phase at 0.75 uM after 12 hrs by propidium iodide staining-based flow cytometric analysis (reference value: 21.11%). In kind it is functional.
Data set [8] concerns MDA-MB-231. Put plainly: Induction of cell cycle arrest in human MDA-MB-231 cells assessed as accumulation at G1 phase at 0.1875 uM after 12 hrs by propidium iodide staining-based flow cytometric analysis (reference value: 53.11%). In kind it is functional.
For data set [9], the target named is Cyclin-dependent kinase 4/6 (Homo sapiens) (UniProt P11802+Q00534). Put plainly: Inhibition of CDK4/6 in human MDA-MB-231 cells assessed as reduction in Rb phosphorylation at Ser780 after 24 hrs by western blot analysis. The following applies: dose 0.5-4 µM. In kind it is cell-based. On the technique in general: A western blot detects proteins with antibodies after separation by electrophoresis.

The test system of data set [10] is MDA-MB-231. Briefly: Induction of cell cycle arrest in human MDA-MB-231 cells assessed as accumulation at G1 phase at 0.75 uM after 12 hrs by propidium iodide staining-based flow cytometric analysis (reference value: 53.11%). In kind it is functional.

Calls of active or inactive are those of the source. The rule behind the calls is not given here.

A word on the inhibition: it is the share of the control response that was lost under treatment. As usually defined, the IC50 is the concentration needed to halve the response being measured.

Chain of Cyclin-dependent kinase 4/6 (Homo sapiens) (P11802 whole entry, looked up): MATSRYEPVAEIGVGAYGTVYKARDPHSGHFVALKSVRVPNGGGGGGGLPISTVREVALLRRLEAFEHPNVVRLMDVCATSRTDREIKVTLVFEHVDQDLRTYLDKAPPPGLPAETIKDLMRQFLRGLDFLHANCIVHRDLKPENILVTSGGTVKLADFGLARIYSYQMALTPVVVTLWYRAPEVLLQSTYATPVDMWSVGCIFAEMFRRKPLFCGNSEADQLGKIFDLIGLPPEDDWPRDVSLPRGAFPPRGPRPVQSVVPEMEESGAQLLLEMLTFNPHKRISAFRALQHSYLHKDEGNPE
Chain of Cyclin-dependent kinase 4/6 (Homo sapiens) (Q00534 whole entry, looked up): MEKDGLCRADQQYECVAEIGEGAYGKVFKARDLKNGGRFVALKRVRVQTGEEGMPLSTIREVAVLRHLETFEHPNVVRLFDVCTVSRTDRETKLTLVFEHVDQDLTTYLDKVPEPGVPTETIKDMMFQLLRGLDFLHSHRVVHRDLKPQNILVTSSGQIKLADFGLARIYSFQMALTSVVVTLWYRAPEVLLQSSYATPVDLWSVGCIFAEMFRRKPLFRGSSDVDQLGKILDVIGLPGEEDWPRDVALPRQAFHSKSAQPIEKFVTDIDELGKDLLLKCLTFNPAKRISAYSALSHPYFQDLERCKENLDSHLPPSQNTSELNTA

For `CC(=O)c1c(C)c2cnc(Nc3ccc(N4CCN(C(=O)CCl)CC4)cn3)nc2n(C2CCCC2)c1=O`, the Activity is 71.12% in the data set with MDA-MB-231 [1]; 68.34% in the data set with MDA-MB-231 [2]; 14.99% in the data set on MDA-MB-231 [4]; 7.55% in the data set with MDA-MB-231 [5]; “Non-Toxic” in the data set with L02; 16.49% in the data set on MDA-MB-231 [7]. For the same molecule, the Activity with MDA-MB-231 [8] stood at 68.04%; in the data set with MDA-MB-231 [10], 71%. Also, in the data set on MDA-MB-231 [3], the inhibition entry was “Active”. Further, the IC50 with MDA-MB-453 amounted to 1.75 µM. In addition, the “Ratio IC50” value with MCF7 is given as 40; with NCI-H1299 it was 4. The inhibition at 0.625 µM in data set [6] was 100%. Besides, the inhibition entry in data set [9] is “Dose-Dependent Effect”.
